For test [1], the target named is T1, cloned rat 5-HT2B receptor (Rattus norvegicus, UniProt P30994).
T1 construct: expressed in transfected cells
Briefly: Radioligand binding, [3H]5-HT, cloned rat 5-HT2B receptor (Table I). On the procedure: Radioligand Binding Studies
Membrane preparation from transformed cells. Suspension cells expressing the cloned rat 5-HT2B receptor were harvested by centrifugation at 2,200 ×g for 15 min at 4° C. Kursar, J. D., D. L. Nelson, D. B. Wainscott, M. L. Cohen, and M. Baez, Mol. Pharmacol., 42: 549-557 (1992). Membranes for the binding assays were prepared by vortexing the pellet in 50 mM Tris-HCl, pH 7.4 (0.5×10^9 cells/30 ml). The tissue suspension was then centrifuged at 39,800 ×g for 10 min at 4° C. This procedure was repeated for a total of three washes, with a 10 minute incubation at 37° C. between the first and second wash. The final pellet was homogenized in 67 mM Tris-HCl, pH 7.4 (at 20-40 and 12.5 million cells/ml, original cell number, for cells expressing low and relatively high levels of the 5-HT2B receptor, respectively) using a Tissumizer (Tekmar, Cincinnati, Ohio), setting 65 for 15 seconds.
(§1) [^3 H]5-HT binding studies. Binding assays were automated using a Biomek 1000 (Beckman instruments, Fullerton, Calif.) and were performed in triplicate in 0.8 ml total volume. Membrane suspension, 200 μl, (0.04-0.27 mg protein) and 200 μl of drug dilution in water were added to 400 μl of 67 mM Tris-HCl, pH 7.4, containing [^3 H]5-HT, pargyline, CaCl2, and L-ascorbic acid. Final concentrations of pargyline, CaCl2 and L-ascorbic acid were 10 μM, 3 mM and 0.1%, respectively. Tubes were incubated at 37° C. for 15 min or at 0° C. for 2 hours (binding equilibria were verified for both of these conditions), then rapidly filtered using a Brandel cell harvester (Model MB-48R; Brandel, Gaithersburg, Md.) through Whatman GF/B filters which had been presoaked in 0.5% polyethylenimine and precooled with ice-cold 50 mM Tris-HCl, pH 7.4. The filters were then washed rapidly four times with one ml ice-cold 50 mM Tris-HCl, pH 7.4. The amount of [^3 H]5-HT trapped on the filters was determined by liquid scintillation spectrometry (Ready Protein and Beckman automated using a Biomek 1000 (Beckman Instruments, Fullerton, Calif.) and were performed in triplicate in 0.8 ml total volume. Membrane suspension, 200 μl, (0.04-0.27 mg protein) and 200 μl of drug dilution in water were added to 400 μl of 67 mM Tris-HCl, pH 7.4, containing [^3 H]5-HT, pargyline, CaCl2, and L-ascorbic acid. Final concentrations of pargyline, CaCl2 and L-ascorbic acid were 10 μM, 3 mM and 0.1%, respectively. Tubes were incubated at 37° C. for 15 min or at 0° C. for 2 hours (binding equilibria were verified for both of these conditions), then rapidly filtered using a Brandel cell harvester (Model MB-48R; Brandel, Gaithersburg, Md.) through Whatman GF/B filters which had been presoaked in 0.5% polyethylenimine and precooled with ice-cold 50 mM Tris-HCl, pH 7.4. The filters were then washed rapidly four times with one ml ice-cold 50 mM Tris-HCl, pH 7.4. The amount of [^3 H]5-HT trapped on the filters was determined by liquid scintillation spectrometry (Ready Protein and Beckman determined for best fit to a one-site or a two-site binding model using a partial E-test. De Lean, A., A. A. Hancock, and R. J. Lefkowitz, Mol. Pharmacol., 21:5-16 (1981). The following equation was used for a one-site binding model, [formula] where Bound=amount of [^3 H]5-HT specifically bound, Bmax =maximum number of binding sites, Kd =equilibrium dissociation constant and [L]=free concentration of [^3 H]5-HT, or a two-site binding model, [formula] where Bound=amount of [^3 H]5-HT specifically bound, Bmax1 =maximum number of high affinity binding sites, Bmax2 =maximum number of low affinity binding sites, Kd1 =equilibrium dissociation constant for the high affinity site, Kd2 =equilibrium dissociation constant for the low affinity site and [L]=free concentration of [^3 H]5-HT. […]

Test [2] has as its target T2, 5-HT2C receptor (Homo sapiens, UniProt P28335).
T2 sequence (P28335 33-458): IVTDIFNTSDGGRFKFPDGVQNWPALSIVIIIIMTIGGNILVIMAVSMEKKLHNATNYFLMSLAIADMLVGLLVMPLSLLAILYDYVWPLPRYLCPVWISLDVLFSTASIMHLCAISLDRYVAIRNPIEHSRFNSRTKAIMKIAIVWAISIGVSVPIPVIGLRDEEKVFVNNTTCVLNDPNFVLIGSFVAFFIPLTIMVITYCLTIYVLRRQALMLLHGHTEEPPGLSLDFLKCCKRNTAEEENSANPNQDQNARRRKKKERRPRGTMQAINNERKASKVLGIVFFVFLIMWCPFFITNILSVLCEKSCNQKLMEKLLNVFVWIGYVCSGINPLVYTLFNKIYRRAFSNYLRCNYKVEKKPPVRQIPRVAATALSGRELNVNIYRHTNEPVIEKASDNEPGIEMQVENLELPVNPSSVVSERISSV
Briefly: Radioligand binding, Human 2C (Table I). The protocol:
as §1, with “7.4.” for “7.4. The filters were then washed rapidly four times with one ml ice-cold 50 mM Tris-HCl, pH 7.4. The amount of [^3 H]5-HT trapped on the filters was determined by liquid scintillation spectrometry (Ready Protein and Beckman determined for best fit to a one-site or a two-site binding model using a partial E-test. De Lean, A., A. A. Hancock, and R. J. Lefkowitz, Mol. Pharmacol., 21:5-16 (1981). The following equation was used for a one-site binding model, [formula] where Bound=amount of [^3 H]5-HT specifically bound, Bmax =maximum number of binding sites, Kd =equilibrium dissociation constant and [L]=free concentration of [^3 H]5-HT, or a two-site binding model, [formula] where Bound=amount of [^3 H]5-HT specifically bound, Bmax1 =maximum number of high affinity binding sites, Bmax2 =maximum number of low affinity binding sites, Kd1 =equilibrium dissociation constant for the high affinity site, Kd2 =equilibrium dissociation constant for the low affinity site and [L]=free concentration of [^3 H]5-HT.”
(§2) Compounds of this invention were tested using the described in vitro assay. Results of the radioligand binding experiments are illustrated in Table I. The values reported in Table I are expressed as Ki calculated as described infra.

The target in test [3] is T3, 5-HT2C receptor (Rattus norvegicus, UniProt P08909).
T3 sequence (P08909 33-460): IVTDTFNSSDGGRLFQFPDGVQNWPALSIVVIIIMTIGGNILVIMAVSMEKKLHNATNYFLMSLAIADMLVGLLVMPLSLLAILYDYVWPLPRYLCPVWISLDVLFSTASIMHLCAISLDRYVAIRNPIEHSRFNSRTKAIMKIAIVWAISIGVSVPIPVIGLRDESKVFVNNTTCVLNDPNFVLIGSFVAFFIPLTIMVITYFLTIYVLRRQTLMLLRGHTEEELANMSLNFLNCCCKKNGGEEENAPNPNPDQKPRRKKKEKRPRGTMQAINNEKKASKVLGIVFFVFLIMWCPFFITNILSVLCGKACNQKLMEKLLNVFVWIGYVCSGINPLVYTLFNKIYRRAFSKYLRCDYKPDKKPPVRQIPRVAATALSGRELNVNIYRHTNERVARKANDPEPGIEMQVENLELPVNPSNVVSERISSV
The test can be described thus: Radioligand binding, Rat 2C (Table I). The protocol: as §1, with “7.4.” for “7.4. The filters were then washed rapidly four times with one ml ice-cold 50 mM Tris-HCl, pH 7.4. The amount of [^3 H]5-HT trapped on the filters was determined by liquid scintillation spectrometry (Ready Protein and Beckman determined for best fit to a one-site or a two-site binding model using a partial E-test. De Lean, A., A. A. Hancock, and R. J. Lefkowitz, Mol. Pharmacol., 21:5-16 (1981). The following equation was used for a one-site binding model, [formula] where Bound=amount of [^3 H]5-HT specifically bound, Bmax =maximum number of binding sites, Kd =equilibrium dissociation constant and [L]=free concentration of [^3 H]5-HT, or a two-site binding model, [formula] where Bound=amount of [^3 H]5-HT specifically bound, Bmax1 =maximum number of high affinity binding sites, Bmax2 =maximum number of low affinity binding sites, Kd1 =equilibrium dissociation constant for the high affinity site, Kd2 =equilibrium dissociation constant for the low affinity site and [L]=free concentration of [^3 H]5-HT.”
as §2

For test [4], the target named is 5-HT2B receptor (Homo sapiens, UniProt P41595). The test can be described thus: Radioligand binding, Human 2B (Table I). The protocol: [^3 H]5-HT binding studies. Binding assays were automated using a Biomek 1000 (Beckman instruments, Fullerton, Calif.) and were performed in triplicate in 0.8 ml total volume. Membrane suspension, 200 μl, (0.04-0.27 mg protein) and 200 μl of drug dilution in water were added to 400 μl of 67 mM Tris-HCl, pH 7.4, containing [^3 H]5-HT, pargyline, CaCl2, and L-ascorbic acid. Final concentrations of pargyline, CaCl2 and L-ascorbic acid were 10 μM, 3 mM and 0.1%, respectively. […] The amount of [^3 H]5-HT trapped on the filters was determined by liquid scintillation spectrometry (Ready Protein and Beckman automated using a Biomek 1000 (Beckman Instruments, Fullerton, Calif.) and were performed in triplicate in 0.8 ml total volume. Membrane suspension, 200 μl, (0.04-0.27 mg protein) and 200 μl of drug dilution in water were added to 400 μl of 67 mM Tris-HCl, pH 7.4, containing [^3 H]5-HT, pargyline, CaCl2, and L-ascorbic acid. Final concentrations of pargyline, CaCl2 and L-ascorbic acid were 10 μM, 3 mM and 0.1%, respectively. Tubes were incubated at 37° C. for 15 min or at 0° C. for 2 hours (binding equilibria were verified for both of these conditions), then rapidly filtered using a Brandel cell harvester (Model MB-48R; Brandel, Gaithersburg, Md.) through Whatman GF/B filters which had been presoaked in 0.5% polyethylenimine and precooled with ice-cold 50 mM Tris-HCl, pH 7.4. […]

Where [5] appears, read: cloned rat 5-HT2B receptor, [3H]5-HT, Ki from IC50 by Cheng-Prusoff, read-out: Ki Rat 2B.
Setting [6] is: Human 2C, Ki from IC50 by Cheng-Prusoff, read-out: Ki Human 2C.
Setting [7] is: Rat 2C, Ki from IC50 by Cheng-Prusoff, read-out: Ki Rat 2C.

The source of these data is US5631265A, “8-substituted tetrahydro-beta-carbolines” (Eli Lilly and Company, priority 1995, dated 1997).

Read-outs that look alike come from different tables or passages of the source.

T1 sequence (P30994 whole entry): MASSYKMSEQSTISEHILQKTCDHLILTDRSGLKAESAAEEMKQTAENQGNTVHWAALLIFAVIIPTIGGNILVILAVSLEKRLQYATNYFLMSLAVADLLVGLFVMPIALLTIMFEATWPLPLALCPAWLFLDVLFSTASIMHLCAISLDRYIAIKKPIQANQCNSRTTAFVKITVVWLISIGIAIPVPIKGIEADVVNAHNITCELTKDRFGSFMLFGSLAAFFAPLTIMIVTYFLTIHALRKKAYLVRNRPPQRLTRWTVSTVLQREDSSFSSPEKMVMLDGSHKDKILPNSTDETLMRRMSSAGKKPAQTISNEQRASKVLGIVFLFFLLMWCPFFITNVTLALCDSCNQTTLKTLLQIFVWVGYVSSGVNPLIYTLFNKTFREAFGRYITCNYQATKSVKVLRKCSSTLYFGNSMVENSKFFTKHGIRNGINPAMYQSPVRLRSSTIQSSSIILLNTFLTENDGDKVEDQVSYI
Sequence of 5-HT2B receptor (P41595 whole entry): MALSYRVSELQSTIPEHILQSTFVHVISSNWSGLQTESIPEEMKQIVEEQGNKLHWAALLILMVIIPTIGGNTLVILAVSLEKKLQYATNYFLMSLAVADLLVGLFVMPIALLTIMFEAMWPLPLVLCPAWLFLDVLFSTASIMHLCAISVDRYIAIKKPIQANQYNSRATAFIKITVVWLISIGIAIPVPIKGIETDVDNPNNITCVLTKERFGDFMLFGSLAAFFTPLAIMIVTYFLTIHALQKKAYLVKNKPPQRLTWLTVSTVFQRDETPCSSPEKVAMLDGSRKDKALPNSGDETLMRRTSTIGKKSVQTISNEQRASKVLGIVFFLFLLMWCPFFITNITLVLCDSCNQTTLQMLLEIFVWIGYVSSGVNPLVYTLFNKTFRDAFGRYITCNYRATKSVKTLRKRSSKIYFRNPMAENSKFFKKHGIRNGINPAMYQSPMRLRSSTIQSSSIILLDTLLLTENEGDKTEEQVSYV

For the compound `Cc1ccc2c3c([nH]c2c1Br)CNCC3` [Example 1, 7-methyl-8-bromo-1,2,3,4-tetrahydro-9H-pyrido[3,4b]-indole], the inhibitory constant (Ki) came out at 3.17 nM in test [1] (setting [5]), 18.2 nM in test [2] (setting [6]) and 14.2 nM in test [3] (setting [7]).
With `COc1cccc2c3c([nH]c12)CNCC3` [Example 2, 8-methoxy-1,2,3,4-tetrahydro-9H-pyrido[3,4b]-indole], the affinity in test [1], expressed as Ki, was 34.5 nM.
Take `CCCN1CCc2c([nH]c3c(OC)cccc23)C1` [Example 3, 8-methoxy-2(N)-propy1,2,3,4-tetrahydro-9H-pyrido[3,4b]-indole]: in test [1], the affinity, expressed as Ki, was 114 nM.
The same measure, in the same setting: the same measure for `COc1cccc2c3c([nH]c12)CN(C)CC3` [Example 4, 8-methoxy-2(N)-methyl-1,2,3,4-tetrahydro-9H-pyrido[3,4b]-indole]: 71.7 nM; for `COc1cccc2c3c([nH]c12)CN(CC1CC1)CC3` [Example 5, 8-methoxy-2(N)-cyclopropylmethyl-1,2,3,4-tetrahydro-9H-pyrido[3,4b]-indole]: 97.5 nM.
As for `CN1CCc2c([nH]c3ccc(O)cc23)C1` [Example 6], the Ki in test [1] (setting [5]) was found to be 4610 nM.
On the same count and under the same terms, the same measure for `Cc1ccc2c3c([nH]c2c1C)CNCC3` [Example 7, 7,8-dimethyl-1,2,3,4-tetrahydro-9H-pyrido[3,4b]-indole]: 15.8 nM.
`Cc1cc(Br)c2[nH]c3c(c2c1)CCNC3` [Example 8, 6-methyl-8-bromo-1,2,3,4-tetrahydro-9H-pyrido[3,4b]-indole]: the Ki in test [1] (setting [5]) was 14 nM; in test [2] (setting [6]), 38.6 nM; in test [4] (Human 2B, Ki from IC50 by Cheng-Prusoff, read-out: Ki Human 2B), 16.4 nM; in test [3] (setting [7]) it was 34.9 nM.
With `Fc1cc(F)c2[nH]c3c(c2c1)CCNC3` [Example 9, 6,8-difluoro-1,2,3,4-tetrahydro-9H-pyrido[3,4b]-indole], the Ki in test [1] was 57.9 nM.
For `Brc1cccc2c3c([nH]c12)CNCC3` [Example 10, 8-bromo-1,2,3,4-tetrahydro-9H-pyrido[3,4b]-indole], the Ki in test [1] turned out to be 6.2 nM; in test [2], 13.2 nM; in test [4] it was 9.68 nM; in test [3], 22.4 nM.

In general, Ki refers to a measure of affinity in units of concentration, obtained from inhibition or displacement.
